Reference: patent US8815593B2, “Induction of human embryonic stem cell derived cardiac pacemaker or chamber-type cardiomyocytes by manipulation of neuregulin signaling” (University of Washington, priority 2008, dated 2014)

Assays:
Type in all cases: cell-based, human
[1] = system: cGATA6-EGFP-transduced hESC-CM cultures; assay: cGATA6-EGFP reporter: fraction of EGFP+ putative nodal cells; conditions: cGATA6-EGFP transduced hESC-CMs, ~50% transduction efficiency; control 15%
Experimental: Prior to lentiviral transduction, hESC-CMs were replated onto glass coverslips as described for electrophysiological studies and allowed to recover for 4-5 days. Cells were then exposed to cGATA6-EGFP lentivirus (at 5000 LPs/cell, added to their usual RPMI-B27 medium) for 12 hours. […] Transduced cell preparations were then used in either electrophysiological or immunocytochemical studies at 3-4 days post-transduction.
Dissociated hESC-CMs were cultured on glass cover slips, fixed, and immunostained as previously described (Laflamme et al., “Cardiomyocytes Derived from Human Embryonic Stem Cells in Pro-Survival Factors Enhance Function of Infarcted Rat Hearts,” Nat. Biotechnol. 25(9):1015-1024 (2007), McDevitt et al., “Proliferation of Cardiomyocytes Derived from Human Embryonic Stem Cells is Mediated Via the IGF/PI 3-Kinase/Akt Signaling Pathway,” J Mol Cell Cardiol. 39(6):865-873 (2005), Laflamme et al., “Formation of Human Myocardium in the Rat Heart from Human Embryonic Stem Cells,” Am J. Pathol. 167(3):663-671 (2005), and Minami et al., “Extracardiac Progenitor Cells Repopulate Most Major Cell Types in the Transplanted Human Heart,” Circulation 112(19):2951-2958 (2005), which are hereby incorporated by reference in their entirety). […] Each experimental condition was assayed in triplicate, and a minimum of 500 nuclei were counted per sample. […]

hESC-CM cultures [2] = assay: action potential (AP) phenotyping of hESC-CMs under current clamp after manipulation of NRG-1β/ErbB signaling
Experimental: At 14 days following induction with activin A, hESC-CMs were dispersed using 0.1 U/ml of dispase (Invitrogen) with 63 U/ml DNase I (Invitrogen) and replated at low density onto 0.5% gelatin-coated glass coverslips. After a few days of additional culture, the spontaneously generated action potentials (APs) of the hESC-CMs were recorded using a HEKA EPC-10 amplifier (HEKA, Lambrecht, Germany), operated in current-clamp mode. Note that the EPC-10 has a true “voltage follower” circuit, similar to a classical microelectrode amplifier (Magistretti et al., “Modalities of Distortion of Physiological Voltage Signals by Patch-Clamp Amplifiers: a Modeling Study,” Biophys J. 74(2 Pt 1):831-842 (1998) and Magistretti et al., “Action Potentials Recorded with Patch-Clamp Amplifiers: Are They Genuine?” Trends Neurosci. 19(12):530-534 (1996), which are hereby incorporated by reference in their entirety). […] Patch pipettes with a resistance of 2-4 MΩ were used; cells with a series resistance of >10 MΩ were discarded. […] Action potential parameters were analyzed by an individual blinded to culture conditions, using Patchmaster (HEKA) and Igor Pro software. […]

hESC-CM cultures [3] = assay: quantitative RT-PCR of cardiac subtype-specific genes; conditions: treated hESC-CMs vs control, normalized to GAPDH
Experimental: Total RNA was prepared by lysing cell preparations with the Qiagen RNEasy kit, followed by DNase treatment. After confirming the quality of the RNA using an Agilent Bioanalyzer 2100, it was reverse-transcribed into cDNA using the Superscript III first-strand cDNA synthesis kit (Invitrogen). Tables 2 and 3 list the primers used for semi-quantitative and quantitative RT-PCR reactions, respectively. All primer pairs were designed to be intron-spanning Quantitative real-time PCR reactions were performed using the SYBR green dye system and an Applied Biosystems 7900HT instrument. Cycling conditions were 10 minutes at 95° C., and 40 cycles of 30 seconds at 95° C., 30 seconds at 55° C., and 30 seconds at 72° C. mRNA levels were normalized using GAPDH as an internal control, and adult human heart cDNA was always run in parallel as a positive control.
In the preceding experiments, manipulation of NRG-1β/ErbB signaling changed the relative abundance of the two cardiac subtypes, as determined by both AP phenotyping and activation of the nodal-specific cGATA6-EGFP genetic reporter. To confirm these findings with an independent, molecular approach, quantitative RT-PCR was used to compare the expression of 18 subtype-specific genes in control, AG1478, and NRG-1β ligand-treated hESC-CM cultures (see Table 4). […] In sum, activation of NRG-1β/ErbB signaling increased the expression of genes associated with working cardiomyocytes, while its blockade with AG1478 increased the expression of genes associated with the nodal subtype.

[4] = system: Akt and ERK kinases in hESC-CM cultures; assay: Western blot analysis of Akt and Erk phosphorylation; conditions: hESC-CMs day 10 post-induction, 10 minutes, 10 or 100 ng/ml NRG-1β, with or without 25 μg/ml anti-NRG1β antibody
Experimental: For this, hESC-CMs (˜5×10^6 […] per well) were treated on day 10 post-induction with 0, 10, or 100 ng/ml NRG-1β (R&D Systems) in the presence or absence of 25 μg/ml anti-NRG1β neutralizing antibody (R&D Systems) for 10 minutes. After treatment, cells were rinsed twice with ice-cold PBS and lysed for 20 minutes on ice with 250 μl of extraction buffer (25 mM Tris-HCl (pH 7.4), 150 mM NaCl, 2 mM EDTA, 10 mM Na2SO4, and 1% Triton X-100 supplemented just prior to use with 50 mM NaF, 1 mM sodium orthovanadate, 1 mM phenylmethylsulfonyl fluoride, and a protease inhibitor cocktail (Sigma)). Lysates were collected with a cell scraper, placed in microcentrifuge tubes, vortexed for 3 minutes at 4° C., and then spun at 4° C. for 20 minutes at 12,000 g to discard cell debris. The resultant protein lysates were then denatured at 95° C. for 10 minutes and loaded (at 30 μg/lane) onto a denaturing 10% SDS/polyacrylamide gel, electrophoresed, and then transferred onto a PVDF membrane. The PVDF blot was blocked for 1 hour at room temperature in 1×TBST (150 mM NaCl, 10 mM Tris-HCl (pH 7.4), and 0.1% Tween) plus 5% nonfat milk, probed overnight with anti-phosphorylation Akt and anti-phosphorylation Erk1/2 antibodies (Cell Signaling), and then incubated with peroxidase-conjugated goat anti-mouse IgG antibody (Sigma). […]

Molecule | percentage of EGFP+ putative nodal cells [1] [%] | proportion of cells exhibiting a nodal-like AP phenotype (hESC-CM cultures [2]; differentiating hESC-CM cultures, control 21%) [%] | expression of HCN4 relative to control cells (hESC-CM cultures [3]) [fold] | expression of Tbx-3 (TBX3) relative to control cells (hESC-CM cultures [3]) [fold] | effect on fraction of nodal cells (AP phenotyping) (hESC-CM cultures [2]; exogenous NRG-1β 100 ng/ml, day 5 to 12 or continuously after day 5, versus control) | expression of NPPA (atrial natriuretic factor, ANF) relative to controls (hESC-CM cultures [3]) [fold] | phosphorylation (activation) of Akt and ERK kinases [4] | phosphorylation (activation) of Akt and ERK kinases ([4]; listed as NRG-1β agonist)
COc1cc2ncnc(Nc3cccc(Cl)c3)c2cc1OC [AG1478] | 25 | 52 | 2.0 | 2.6 |  |  |  | 
NRG1β ligand: NRG-1β (R&D Systems), exogenous neuregulin-1β agonist of ErbB receptors (protein) TSHLVKCAEKEKTFCVNGGECFMVKDLSNPSRYLCKCPNEFTGDRCQNYVMASFYKHLGIEFMEAEELYQK |  |  |  |  | a trend toward the opposite effect (i.e., a reduction in the fraction of nodal cells) | 2.6 | phosphorylated | activation of both kinases
